Earlier results, collected in patent US11964046B2, “Topical composition for the control of pain in animals” (priority 2016, dated 2024).

Test system: piglets
[1] = lidocaine injected at least three minutes prior to castration, p<0.001

CCN(CC)CC(=O)Nc1c(C)cccc1C [lidocaine]
pain during castration (study conclusion) (injected): reduced pain during castration | intensity of calls during castration [1]: lower intensity | resistance movements during castration [1]: less resistance movements
